Source: US20240139176A1, “METHODS OF TREATING OR PREVENTING CACHEXIA” (Toray Industries, Inc., priority 2019, published 2024)
Structures can show the parent of a compound that is named as a salt.

Experiments:
[1] = third phase clinical trials; cited from earlier work
[2] = system: tumor-bearing mouse model (non-small cell lung cancer model having ghrelin resistance), A549 cells planted into nude mice; experiment: Food intake and body weight in tumor-bearing mouse model (non-small cell lung cancer model having ghrelin resistance), dosing from Day 43 after A549 plantation; format: in vivo; settings: oral daily for 28 days (Day 43 to Day 70), Compound 1 0.25 mg/kg, anamorelin hydrochloride 30 mg/kg, combined 0.25 + 30 mg/kg, Dunnett's test P<0.05; for cumulative food intake in the period of administration, compared to distilled water-treated group: FIG. 1; for body weight after 28-day administration, compared to distilled water-treated group: FIG. 2
Protocol: Using tumor-bearing model animals where human alveolar basement epidermal gland cancer cells, A549 cells, were planted into nude mice, examination was performed about drug efficacy on the food intake and the body weight when Compound 1 and anamorelin hydrochloride (MedChemExpress LLC) were combined.
Subculture of A549 cells was performed using a 10% FBS-containing RPMI1640 culture medium. In evaluation of drug efficacy, 7-week old female BALB/C slc/nu/nu mice (Japan SLC, Inc.) were purchased, and used after habituated for one week. Tumor-bearing model animals were prepared as follows. Specifically, 2.5×10^7 cells of A549 cells were planted to the right abdominal of each mouse by subdermal administration. On Day 41 from the cell plantation, the mice were divided into groups to have an equal averaged tumor volume.
The effects of a variety of compounds on food intake and body weight were examined as follows. Specifically, for 28 days from Day 43 to Day 70 from the cell plantation, the compounds were orally administered daily, and the food intake and the body weight were measured at the same time. For the doses of the compounds, the dose of Compound 1 was 0.25 mg/kg (9 examples), and that of anamorelin hydrochloride was 30 mg/kg (9 examples). In combined administration of Compound 1 and anamorelin hydrochloride, 0.25 mg/kg of Compound 1 and 30 mg/kg of anamorelin hydrochloride were used, where Compound 1 and anamorelin hydrochloride preliminarily dissolved in distilled water mixed for preparation (9 examples). As a control, distilled water was administered in the same manner (9 examples). The food intake was calculated by subtracting the weight of the lid of each single cage containing food on the previous day from the weight of the lid of the single cage containing food on the day of measurement.
In FIG. 1, the ordinate represents the cumulative food intake in the period of administration of the compounds (from the start of administration to the day next to the final day of administration). In FIG. 2, the ordinate represents the body weight on Day 29 from the start of administration of the compounds (the day next to the final day of administration) (after 28-day administration). In the abscissas of FIGS. 1 and 2, “Distilled water” represents distilled water-treated group, “Compound 1” represents Compound 1-treated group, “Anamorelin” represents anamorelin hydrochloride-treated group, and “Combined administration” represents Compound 1 and anamorelin hydrochloride-combined treatment group. In FIGS. 1 and 2, the mark “*” represents a statistical significance (*: P<0.05) compared to distilled water-treated group (Dunnett's multiple test).

[3] = system: tumor-bearing mouse model (non-small cell lung cancer model), A549 cells planted to nude mice; experiment: Food intake and body weight in tumor-bearing mouse model (non-small cell lung cancer model), dosing from Day 23 after A549 plantation; format: in vivo; settings: oral daily for 28 days (Day 23 to Day 50), Compound 1 0.25 mg/kg, anamorelin hydrochloride 30 mg/kg, combined 0.25 + 30 mg/kg, Dunnett's test P<0.05; for cumulative food intake in the period of administration, compared to distilled water-treated group: FIG. 3; for body weight after 28-day administration, compared to distilled water-treated group: FIG. 4
Protocol: Using tumor-bearing model animals where human alveolar basement epidermal gland cancer cells, A549 cells, were planted to nude mice, examination was performed about the drug efficacy on the food intake and body weight when Compound 1 and anamorelin hydrochloride were combined.
Subculture of A549 cells was performed using a 10% FBS-containing RPMI1640 culture medium. In evaluation of drug efficacy, 7-week old female BALB/C slc/nu/nu mice (Japan SLC, Inc.) were purchased, and used after habituated for one week. Cancer-bearing model animals were prepared as follows. Specifically, 2.5×10^7 cells of A549 cells were planted to the right abdominal of each mouse by subdermal administration. On Day 22 from the cell plantation, the mice were divided into groups to have an equal averaged tumor volume.
The effects of a variety of compounds on food intake and body weight were examined as follows. Specifically, for 28 days from Day 23 to Day 50 from the cell plantation, the compounds were orally administered daily, and the food intake and the body weight measured at the same time. For the doses of the compounds, the dose of Compound 1 was 0.25 mg/kg (13 examples), and the dose of anamorelin hydrochloride was 30 mg/kg (13 examples). In combined administration of Compound 1 and anamorelin hydrochloride, 0.25 mg/kg of Compound 1 and 30 mg/kg of anamorelin hydrochloride were used, where Compound 1 and anamorelin hydrochloride preliminarily dissolved in distilled water were mixed for preparation (13 examples). As a control, distilled water was administered in the same manner (13 examples). The food intake was calculated by subtracting the weight of the lid of each single cage containing food on the previous day from the weight of the lid of the single cage containing food on the day of measurement.
In FIG. 3, the ordinate represents the cumulative food intake in the period of administration of the compounds (from the start of administration to the day next to the final day of administration). In FIG. 4, the ordinate represents the body weight on Day 29 from the start of administration of the compounds (the day next to the final day of administration) (after 28-day administration). In the abscissas of FIGS. 3 and 4, “Distilled water” represents distilled water-treated group, “Compound 1” represents Compound 1-treated group, “Anamorelin” represents anamorelin hydrochloride-treated group, and “Combined administration” represents Compound 1 and anamorelin hydrochloride combined-treatment group. In FIGS. 3 and 4, the mark “*” represents a statistical significance (*: P<0.05) compared to distilled water-treated group (Dunnett's multiple test).

[4] = system: tumor-bearing mouse model (skin cancer model), B16/F10 cells planted to mice; experiment: Food intake and body weight in tumor-bearing mouse model (skin cancer model), B16/F10 cells; format: in vivo; settings: oral daily for 11 days (Day 5 to Day 15), Compound 1 0.05 mg/kg, anamorelin hydrochloride 30 mg/kg, combined 0.05 + 30 mg/kg; for cumulative food intake in the period of administration, compared to distilled water-treated group: Dunnett's test P<0.05, FIG. 5; for body weight after 11-day administration, compared to distilled water-treated group: FIG. 6
Protocol: Using tumor-bearing model animals where mouse malignant melanoma cells, B16/F10 cells, were planted to mice, and examination performed about the drug efficacy to the food intake and the body weight when Compound 1 and anamorelin hydrochloride were combined.
Subculture of B16/F10 cells was performed using a DMEM culture medium containing 10% FBS and penicillin-streptomycin. In evaluation of the drug efficacy, 6-weeks old female C57BL/6J mice (Charles River Laboratories, Japan, Inc.) when introduced were used after habituated for one week. The tumor-bearing model animals were prepared as follows. Specifically, 5×10^6 cells of B16/F10 cells were planted to the right abdominal of each mouse by subdermal administration. On Day 5 from the cell plantation, the mice were divided into groups to have an equal averaged tumor volume.
The effects of a variety of compounds on food intake and body weight were examined as follows. Specifically, for 11 days from Day 5 to Day 15 from the cell plantation, the compounds were orally administered daily, and the food intake and the body weight measured at the same time. For the doses of the compounds, the dose of Compound 1 was 0.05 mg/kg (8 examples), and that of anamorelin hydrochloride was 30 mg/kg (8 examples). In combined administration of Compound 1 and anamorelin hydrochloride, 0.05 mg/kg of Compound 1 and 30 mg/kg of anamorelin hydrochloride were used, where Compound 1 and anamorelin hydrochloride preliminarily dissolved in distilled water were mixed for preparation (8 examples). As a control, distilled water was administered in the same manner (8 examples). The food intake was calculated by subtracting the weight of the lid of each single cage containing food on the previous day from the weight of the lid of the single cage containing food on the day of measurement. Eight individuals of each group were divided into two cases, in each of which 4 individuals were raised. The food intake per one mouse was calculated by dividing the total food intake of the 2 cases by 8.
In FIG. 5, the ordinate represents the cumulative food intake in the period of administration of the compounds (from the start of administration to the day next to the final day of administration). In FIG. 6, the ordinate represents the body weight on Day 12 from the start of administration of the compounds (the day next to the final day of administration) (after 11-day administration). In the abscissas in FIGS. 5 and 6, “Distilled water” represents distilled water-treated group, “Compound 1” represents Compound 1-treated group, “Anamorelin” represents anamorelin hydrochloride-treated group, and “Combined administration” represents Compound 1 and anamorelin hydrochloride-combined treatment group. […]

SMILES	lean body mass [1]	cumulative food intake in the period of administration, compared to distilled water-treated group [2]	body weight after 28-day administration, compared to distilled water-treated group [2]	cumulative food intake in the period of administration, compared to distilled water-treated group [3]	body weight after 28-day administration, compared to distilled water-treated group [3]	cumulative food intake in the period of administration, compared to distilled water-treated group [4]	body weight after 11-day administration, compared to distilled water-treated group [4]
CN(C)N(C)C(=O)[C@@]1(Cc2ccccc2)CCCN(C(=O)[C@@H](Cc2c[nH]c3ccccc23)NC(=O)C(C)(C)N)C1 [anamorelin hydrochloride, 2-amino-N-[(1R)-2-[(3R)-3-benzyl-3-(N,N′,N′-trimethylhydrazinocarbonyl)piperidin-1-yl-]-1-(1H-indol-3-ylmethyl)-2-oxoethyl]-2-methylpropionamide]	significantly increases lean body mass	any statistically significant increase of food intake was not observed	any statistically significant increase in body weight was not observed	a tendency of increasing food intake was observed	statistically significant increase of body weight was exhibited	any statistically significant increase food intake was not observed	a tendency of increasing body weight was not exhibited
CN(C(=O)/C=C/c1ccoc1)[C@@H]1CC[C@@]2(O)[C@H]3Cc4ccc(O)c5c4[C@@]2(CCN3CC2CC2)[C@H]1O5 [Compound 1, (−)-17-(cyclopropylmethyl)-3,14β-dihydroxy-4,5α-epoxy-6β-[N-methyl-trans-3-(3-furyl)acrylamide]morphinanhydrochloride]	–	any statistically significant increase of food intake was not observed	any statistically significant increase in body weight was not observed	statistically significant increase of food intake was exhibited	statistically significant increase of body weight was exhibited	any statistically significant increase food intake was not observed	a tendency of increasing body weight was not exhibited
